Test results from patent US20110044913A1, “8-HYDROXY-5-[(1R)-1-HYDROXY-2-[[(1R)-2-(4-METHOXYPHENYL)-1-METHYLETHYL]AMINO]ETHYL]-2(1H)-QUINOLINONE HEMI-FUMARATE” (Chiesi Farmaceutici S.p.A., priority 2009, published 2011).
Where a name gives a salt, the structure may show the parent alone.

Legend:
Format in all cases: physicochemical
[1] = Dispersion of the micronized salt in the carrier by Near Infrared microscopy imaging (Near Imaging); settings: micronized form, after 180 minute of mixing
Protocol: As it can be appreciated from Table 6, upon milling, the salt of the present invention remains crystalline and its chemical purity is not altered. The batch is then added to a carrier made of coarser particles.
The homogeneous dispersion of the active ingredient in the powder, and the absence of aggregates of active particles is established using a Near Infrared spectrophotometer equipped with a microscopy imaging system (Near Imaging).

[2] = Hygroscopicity of the salt
[3] = Particle size distribution after jet milling (micronization); settings: micronized batch
Text: A batch of formoterol fumarate dihydrate is milled in a nitrogen fluid jet mill apparatus MC 50 (JET Pharma S.A).

[4] = Solubility of the salt in different solvents
[5] = Chemical and physical stability of the salt; settings: different conditions of humidity and temperature

Q: For COc1ccc(CC(C)NCC(O)c2ccc(O)c3[nH]c(=O)ccc23)cc1 [Carmoterol hemi-fumarate, 8-hydroxy-5-[(1R)-1-hydroxy-2-[[(1R)-2-(4-methoxyphenyl)-1-methylethyl]amino]ethyl]-2(1H)-quinolinone (carmoterol) hemi-fumarate salt], which “Agglomerates after mixing with carrier” value [1] is on record?
A: The value was “no agglomerates are observed”.

Q: And the Hygroscopicity [2]?
A: The Hygroscopicity was “non-hygroscopic”.

Q: What about the “Particle size d (v, 0.1)” value [3] of the same compound?
A: The value was 0.79 μm.

Q: And the “Particle size d (v, 0.5)” value [3]?
A: Its value is 3.73 μm.

Q: What about the “Particle size d (v, 0.9)” value [3] of the same compound?
A: The value was 7.58 μm.

Q: And the “Solubility in HFA propellants” value ([4]; HFA propellants)?
A: Its value is “practically insoluble”.

Q: What about the “Solubility in Vertrel XF” value ([4]; solvent: Vertrel XF (2,3-dihydodecafluoropentane, simulates HFA propellants), l.o.d. = limit of detection) of the same compound?
A: Its value is “<l.o.d.^(2)”.

Q: And the “Solubility in Acetone” value ([4]; solvent: acetone)?
A: The value was 0.008 %, w/v.

Q: What about the “Solubility in Ethanol” value ([4]; solvent: ethanol) of the same compound?
A: Its value is 0.27 %, w/v.

Q: And the solubility ([4]; solvent: water)?
A: The solubility was 13.6 mg/mL.

Q: What about the “Chemical and physical stability” value [5] of the same compound?
A: Its value is “chemically and physically stable”.
